Literature values as cited in US11058735B2, “Formulations containing pomegranate seed oil, rosa canina fruit oil and inula viscosa oleoresin or extract” (POMEGA, INC., priority 2014, dated 2021).

Conditions: compared with grape seed extract, background statement

CCCC\C=C/C=C/C=C\CCCCCCCC(=O)O [Punicic acid]
antioxidant power relative to grape seed extract: approximately 10 times
